Measurements published in US20080124809A1, “Method of Interaction Observation” (RIKEN, priority 2004, published 2008).

Experiments:
anti-DIG antibody = experiment: SPR imaging of anti-DIG antibody binding to the immobilized small molecular array; conditions: 4 J/cm^2; for binding of anti-DIG antibody to immobilized substance (FIG. 15): Comparative Example 2: irradiated at 245 nm, 50 μg/mL antibody run for 5 minutes; for binding of anti-DIG antibody to immobilized substance (FIG. 12): Example 1: photoimmobilized at 365 nm, 50 μg/mL antibody
anti-EST antibody = experiment: SPR imaging of anti-EST antibody binding to the immobilized small molecular array; conditions: Example 1: photoimmobilized at 365 nm, 4 J/cm^2; 50 μg/mL antibody

binding of anti-EST antibody to immobilized substance (FIG. 13) (anti-EST antibody)	Structure (SMILES)	binding of anti-DIG antibody to immobilized substance (FIG. 15) (anti-DIG antibody)	binding of anti-DIG antibody to immobilized substance (FIG. 12) (anti-DIG antibody)
	C[C@H]1O[C@@H](O[C@H]2[C@@H](O)C[C@H](O[C@H]3[C@@H](O)C[C@H](O[C@H]4CC[C@@]5(C)[C@H](CC[C@@H]6[C@@H]5C[C@@H](O)[C@]5(C)[C@@H](C7=CC(=O)OC7)CC[C@]65O)C4)O[C@@H]3C)O[C@@H]2C)C[C@H](O)[C@@H]1O [DIG, digoxin]	observed	obvious
	C[C@H]1O[C@@H](O[C@H]2[C@@H](O)C[C@H](O[C@H]3[C@@H](O)C[C@H](O[C@H]4CC[C@@]5(C)[C@H](CC[C@@H]6[C@@H]5CC[C@]5(C)[C@@H](C7=CC(=O)OC7)CC[C@]65O)C4)O[C@@H]3C)O[C@@H]2C)C[C@H](O)[C@@H]1O [DTN, digitoxin]	observed	obvious
No binding	C[C@]12CCC(=O)C=C1CC[C@@H]1[C@@H]2[C@@H](O)C[C@@]2(C)[C@H]1CC[C@]2(O)C(=O)CO [HCN, Hydrocortisone]		
No binding	CC(=O)[C@H]1CC[C@H]2[C@@H]3CCC4=CC(=O)CC[C@]4(C)[C@H]3CC[C@]12C [PGS, Progesterone]		

Structure (SMILES)	binding of anti-EST antibody to immobilized substance (FIG. 13) (anti-EST antibody)	binding of anti-DIG antibody to immobilized substance (FIG. 15) (anti-DIG antibody)	binding of anti-DIG antibody to immobilized substance (FIG. 12) (anti-DIG antibody)
C[C@]12CC[C@@H]3c4ccc(O)cc4CC[C@H]3[C@@H]1CC[C@@H]2O [EST, β-Estradiol]	bound to only the spots of EST		
